Measurements as given in US6448405B1, “Steroid receptor modulator compounds and methods” (Ligand Pharmaceuticals Incorporated, priority 1994, dated 2002).
Like-named read-outs stand apart in the source and are kept apart here.

What was measured:
[1] = biological target: T1, human glucocorticoid receptor (GR) (Homo sapiens, UniProt P04150); assay: Co-transfection assay, GR antagonist activity, CV-1 cells (pRShGR); type: cell-based; details: antagonist mode; for GR Antagonist CV-1 Cells Efficacy (%): % maximal inhibition; for IC50: read-out: GR Antagonist CV-1 Cells Potency
T1 construct: expressed in transfected cells; host or cells: CV-1 cells, transient transfection
T1 sequence (P04150 1-777): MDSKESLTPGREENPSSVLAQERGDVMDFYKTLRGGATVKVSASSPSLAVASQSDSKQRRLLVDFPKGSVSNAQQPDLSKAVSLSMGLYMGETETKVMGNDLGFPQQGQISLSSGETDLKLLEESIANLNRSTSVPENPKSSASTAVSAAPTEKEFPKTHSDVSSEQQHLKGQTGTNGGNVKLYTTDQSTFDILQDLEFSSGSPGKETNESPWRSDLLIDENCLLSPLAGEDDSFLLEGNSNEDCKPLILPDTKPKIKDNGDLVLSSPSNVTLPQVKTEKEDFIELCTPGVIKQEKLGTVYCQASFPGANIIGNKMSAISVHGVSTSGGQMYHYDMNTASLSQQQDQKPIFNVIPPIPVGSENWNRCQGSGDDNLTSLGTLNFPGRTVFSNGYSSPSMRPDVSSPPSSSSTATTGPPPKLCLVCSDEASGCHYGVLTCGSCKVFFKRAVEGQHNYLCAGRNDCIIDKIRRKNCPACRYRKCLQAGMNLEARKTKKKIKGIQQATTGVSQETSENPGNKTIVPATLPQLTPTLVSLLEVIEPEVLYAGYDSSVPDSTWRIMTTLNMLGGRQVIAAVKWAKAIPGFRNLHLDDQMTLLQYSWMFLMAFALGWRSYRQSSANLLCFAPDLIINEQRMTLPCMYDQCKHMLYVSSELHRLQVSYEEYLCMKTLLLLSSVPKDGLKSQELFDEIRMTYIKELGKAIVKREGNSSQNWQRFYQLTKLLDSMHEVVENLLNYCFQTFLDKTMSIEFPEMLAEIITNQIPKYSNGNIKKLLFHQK

[2] = biological target: T2, human mineralocorticoid receptor (MR) (Homo sapiens, UniProt P08235); assay: Co-transfection assay, MR antagonist activity, CV-1 cells (pRShMR); type: cell-based; details: antagonist mode; for MR Antagonist CV-1 Cells Efficacy (%): % maximal inhibition; for IC50: read-out: MR Antagonist CV-1 Cells Potency
T2 construct: expressed in transfected cells; host or cells: CV-1 cells, transient transfection
T2 sequence (P08235 1-984): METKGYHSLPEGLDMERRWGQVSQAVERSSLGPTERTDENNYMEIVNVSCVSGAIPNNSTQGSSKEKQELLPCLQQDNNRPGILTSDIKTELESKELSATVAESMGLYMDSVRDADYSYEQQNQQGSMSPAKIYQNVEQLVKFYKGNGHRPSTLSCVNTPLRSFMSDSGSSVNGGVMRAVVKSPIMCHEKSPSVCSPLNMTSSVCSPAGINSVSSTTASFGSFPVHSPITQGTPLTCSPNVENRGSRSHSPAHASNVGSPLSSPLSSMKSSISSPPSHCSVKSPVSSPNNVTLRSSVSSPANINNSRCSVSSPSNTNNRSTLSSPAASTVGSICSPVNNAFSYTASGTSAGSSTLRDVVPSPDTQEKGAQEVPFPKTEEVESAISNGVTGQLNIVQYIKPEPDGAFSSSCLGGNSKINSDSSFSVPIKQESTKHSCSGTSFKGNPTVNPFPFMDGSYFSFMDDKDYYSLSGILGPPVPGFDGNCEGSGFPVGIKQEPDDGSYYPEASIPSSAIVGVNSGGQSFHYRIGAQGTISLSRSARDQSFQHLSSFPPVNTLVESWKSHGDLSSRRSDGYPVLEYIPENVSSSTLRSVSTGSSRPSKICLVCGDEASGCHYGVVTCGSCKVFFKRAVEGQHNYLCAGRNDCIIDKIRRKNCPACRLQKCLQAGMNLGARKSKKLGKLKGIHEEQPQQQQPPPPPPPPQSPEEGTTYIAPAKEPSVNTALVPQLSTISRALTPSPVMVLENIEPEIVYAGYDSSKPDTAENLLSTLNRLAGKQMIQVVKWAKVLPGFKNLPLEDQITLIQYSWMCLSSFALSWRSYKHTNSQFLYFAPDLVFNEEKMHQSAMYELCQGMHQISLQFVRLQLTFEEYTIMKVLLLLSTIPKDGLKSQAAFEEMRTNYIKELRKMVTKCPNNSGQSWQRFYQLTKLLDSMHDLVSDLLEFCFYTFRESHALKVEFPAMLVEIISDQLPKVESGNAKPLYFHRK

[3] = biological target: T3, human glucocorticoid receptor alpha (GRα) (Homo sapiens, UniProt P04150); assay: GR binding assay, baculovirus extract, [3H] dexamethasone; details: competition with [3H] dexamethasone, 4° C., 16 hours; read-out: GR Binding K1
T3 construct: made in house; crude extract used
T3 sequence (P04150 1-777): T1 sequence (P04150 1-777)

[4] = test system: ventral prostates (VP) and seminal vesicles (SV) of immature castrated rats; assay: Immature castrated male rat model (antiandrogen activity); type: in vivo; details: co-administered with 0.1 mg of TP
Procedure: Since the male sex organs are the tissues most responsive to modulation of androgen activity, this model is used to determine the androgen-dependent growth of the sex accessory organs in immature castrated rats.
Five days after surgery, animals groups were dosed for 3 days as follows:
At the end of the 3-day treatment, the animals were sacrificed, and the ventral prostates (VP) and seminal vesicles (SV) were collected and weighed. To compare data from different experiments, the sexual organ weights were first standardized as mg per 100 g of body weight, and the increase in organ weight induced by TP was considered as the maximum increase (100%). Super-anova (one factor) was used for statistical analysis.
The gain and loss of sexual organ weights reflect the changes of cell number (DNA content) and cell mass (protein content), depending upon the serum androgen concentration. […] Therefore, measurement of organ wet weights is sufficient to indicate the bioactivity of androgens and androgen antagonists.

[5] = biological target: T4, human androgen receptor (AR) (Homo sapiens, UniProt P10275); assay: Co-transfection assay, AR agonist and antagonist activity, CV-1 cells (pRShAR); type: cell-based; details: for AR Agonist CV-1 Cells Efficacy (%): relative to DHT; for AR Antagonist CV-1 Cells Efficacy (%): antagonist mode, % maximal inhibition
T4 construct: expressed in transfected cells; host or cells: CV-1 cells, transient transfection
T4 sequence (P10275 1-920): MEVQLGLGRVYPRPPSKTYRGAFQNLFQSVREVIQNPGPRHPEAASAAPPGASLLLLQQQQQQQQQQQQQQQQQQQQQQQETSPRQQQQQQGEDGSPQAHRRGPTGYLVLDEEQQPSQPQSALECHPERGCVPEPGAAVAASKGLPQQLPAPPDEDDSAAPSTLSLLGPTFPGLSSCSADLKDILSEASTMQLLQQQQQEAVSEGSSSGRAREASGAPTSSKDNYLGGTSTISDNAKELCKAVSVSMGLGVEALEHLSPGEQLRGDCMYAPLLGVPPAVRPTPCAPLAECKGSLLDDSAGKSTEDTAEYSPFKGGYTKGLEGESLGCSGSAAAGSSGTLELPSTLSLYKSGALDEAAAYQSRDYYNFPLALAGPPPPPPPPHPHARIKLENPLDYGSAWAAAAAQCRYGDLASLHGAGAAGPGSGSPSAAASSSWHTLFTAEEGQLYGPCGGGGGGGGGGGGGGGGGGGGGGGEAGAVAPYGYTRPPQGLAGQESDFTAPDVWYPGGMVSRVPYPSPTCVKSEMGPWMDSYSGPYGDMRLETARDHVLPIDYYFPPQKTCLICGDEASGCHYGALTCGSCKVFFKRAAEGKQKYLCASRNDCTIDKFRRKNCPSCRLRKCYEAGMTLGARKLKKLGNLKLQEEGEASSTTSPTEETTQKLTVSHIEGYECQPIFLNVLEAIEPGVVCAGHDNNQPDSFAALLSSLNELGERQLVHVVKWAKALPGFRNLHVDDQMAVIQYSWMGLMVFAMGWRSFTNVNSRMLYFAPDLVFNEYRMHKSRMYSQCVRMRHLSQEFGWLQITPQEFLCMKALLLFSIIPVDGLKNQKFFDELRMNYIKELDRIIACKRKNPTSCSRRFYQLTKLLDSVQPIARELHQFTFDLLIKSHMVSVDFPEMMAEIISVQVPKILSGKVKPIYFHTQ

human AR = biological target: T5, human AR (Homo sapiens, UniProt P10275); assay: AR whole cell binding assay, transfected COS-1 cells, 3H-DHT
T5 construct: expressed in transfected cells; host or cells: COS-1 cells, transient transfection
T5 sequence (P10275 1-920): T4 sequence (P10275 1-920)

CC1=CC(C)(C)Nc2ccc3c(c21)C(c1ccsc1)Oc1ccccc1-3 (racemic) [Compound 170, (R/S)-1,2-Dihydro-2,2,4-trimethyl-5-(thiophen-3-yl)-5H-chromeno[3,4-f]quinoline]
GR Antagonist CV-1 Cells Efficacy (%) ([1]; Table 4): 94% | IC50 ([1]; dexamethasone at its EC50): 1.55 µM | MR Antagonist CV-1 Cells Efficacy (%) ([2]; Table 4): 84% | IC50 ([2]; aldosterone at its EC50): 0.41 µM | Ki [3]: 0.047 µM

C=C1CC(C)(C)Nc2ccc3c(c21)C(c1cccc(F)c1)Oc1ccccc1-3 (racemic) [Compound 192, (R/S)-5-(3-Fluorophenyl)-1,2,3,4-tetrahydro-2,2-dimethyl-4-methylidene-5H-chromeno[3,4-f]quinoline]
GR Antagonist CV-1 Cells Efficacy (%) ([1]; Table 4): 81% | IC50 ([1]; dexamethasone at its EC50): 0.28 µM | MR Antagonist CV-1 Cells Efficacy (%) ([2]; Table 4): 70% | IC50 ([2]; aldosterone at its EC50): 0.32 µM | Ki [3]: 0.214 µM

CC1=CC(C)(C)Nc2cc3c(cc21)c(C(F)(F)F)cc(=O)n3C [Compound 261, 1,2-Dihydro-2,2,4,9-tetramethyl-6-trifluoromethyl-8-pyridono[5,6-g]quinoline]
AR antagonist activity: suppression of testosterone-mediated increases in the weights of VP and SV [4]: exhibited AR antagonist activity

CC1=CC(C)(C)Nc2ccc3c(c21)C(c1cc(F)cc(Br)c1)Oc1ccccc1-3 (racemic) [Compound 351, (R/S)-5-(3-Bromo-5-Fluorophenyl)-1,2-dihydro-2,2,4-trimethyl-5H-chromeno[3,4-f]quinoline]
melting point: 82 to 84 °C

CC1=CC(C)(C)Nc2c1cc1c(C(F)(F)F)cc(=O)[nH]c1c2C [Compound 255, 1,2-Dihydro-2,2,4,10-tetramethyl-6-trifluoromethyl-8-pyridono[5,6-g]quinoline]
AR antagonist activity: suppression of testosterone-mediated increases in the weights of VP and SV [4]: exhibited AR antagonist activity

CC1=CC(C)(C)Nc2ccc3c(c21)C(c1ccc(C)cc1)Oc1ccccc1-3 (racemic) [Compound 167, (R/S)-1,2-Dihydro-2,2,4-trimethyl-5-(4-Methylphenyl)-5H-chromeno[3,4-f]quinoline]
GR Antagonist CV-1 Cells Efficacy (%) ([1]; Table 4): 96% | GR Antagonist CV-1 Cells Efficacy (%) ([1]; dexamethasone at its EC50): 96% | IC50 ([1]; dexamethasone at its EC50): 0.855 µM | MR Antagonist CV-1 Cells Efficacy (%) ([2]; Table 4): 61% | MR Antagonist CV-1 Cells Efficacy (%) ([2]; aldosterone at its EC50): 61% | IC50 ([2]; aldosterone at its EC50): 2 µM | Ki [3]: 0.021 µM

CC1C(=O)C(C)(C)Nc2cc3[nH]c(=O)cc(C(F)(F)F)c3cc21 (racemic) [Compound 418, (R/S)-1,2,3,4-Tetrahydro-6-trifluoromethyl-2,2,4-trimethyl-8-pyridono[5,6-f]-3-quinolinone]
EC50 [5]: > 10 µM | IC50 [5]: 0.2 µM | AR Agonist CV-1 Cells Efficacy (%) ([5]; Table 2, agonist mode): na (na = not active (i.e. efficacy of <20 and potency of >10,000)) | AR Antagonist CV-1 Cells Efficacy (%) ([5]; Table 2): 63% | AR Agonist CV-1 Cells Efficacy (%) ([5]; agonist mode): na (na = not active (i.e. efficacy of <20 and potency of >10,000)) | EC50 ([5]; read-out: AR Agonist CV-1 Cells Potency, agonist mode, EC50): > 10 µM | Ki (human AR; competition with 1 nM 3H-DHT, COS-1 whole cells, three hours at 37° C., read-out: AR Binding Ki): 1 µM

CC1=CC(C)(C)Nc2cc3oc(=O)cc(C(F)(F)C(F)(F)F)c3cc21 [Compound 256, 1,2-Dihydro-2,2,4-trimethyl-6-(1,1,2,2,2-pentafluoroethyl)-8-pyranono[5,6-g]quinoline]
EC50 [5]: > 10 µM | IC50 [5]: 0.062 µM | AR Agonist CV-1 Cells Efficacy (%) ([5]; Table 2, agonist mode): na (na = not active (i.e. efficacy of <20 and potency of >10,000)) | AR Antagonist CV-1 Cells Efficacy (%) ([5]; Table 2): 91% | AR Agonist CV-1 Cells Efficacy (%) ([5]; agonist mode): na (na = not active (i.e. efficacy of <20 and potency of >10,000)) | EC50 ([5]; read-out: AR Agonist CV-1 Cells Potency, Table 2, agonist mode, EC50): > 10 µM | Ki (human AR): 4.5 µM
